Experimental data from the supplement of paper PMC12463676, “Small-molecule dissolution of stress granules by redox modulation benefits ALS models” (Nature Chemical Biology, 2025).

How the values were obtained:
potassium arsenate = compound: O=[As]([O-])(O)O.[K+] [potassium arsenate]; experiment: thermal stability z-score vs DMSO; higher = more thermally stabilized by treatment; conditions: HeLa; arsenate concentration 1 mM
Experimental: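 Cellular thermal proteome profiling in HeLa cells treated with 1 mM arsenate for 1 h (DMSO pretreatment), heated to ten temperatures (37-66.3 °C). Soluble protein was quantified by TMT mass spectrometry relative to DMSO controls; the thermal stability score was transformed to a z-score; mean of n = 3 experiments.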

lipoamide = compound: NC(=O)CCCCC1CCSS1 [lipoamide]; experiment: as above; conditions: HeLa, lipoamide concentration 100 µM
Experimental: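 Cellular thermal proteome profiling in HeLa cells. Cells were treated with 100 µM lipoamide for 1 h, with or without 1 mM arsenate for a further 1 h, then heated to ten temperatures (37-66.3 °C), and soluble protein was quantified by TMT mass spectrometry relative to 0.1% DMSO controls. The thermal stability score (sum of log2 fold changes minus the abundance score) was transformed to a z-score; mean of n = 3 experiments.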

[1] = arsenate co-treatment: 1 mM arsenate 1 h
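Further: each temperature applied for 3 min, abundance score taken as mean log2 fold change at the two lowest temperatures, z-score obtained by mean subtraction and division by SD.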

Sequence of UniProt Q9NT62 (Q9NT62 whole entry): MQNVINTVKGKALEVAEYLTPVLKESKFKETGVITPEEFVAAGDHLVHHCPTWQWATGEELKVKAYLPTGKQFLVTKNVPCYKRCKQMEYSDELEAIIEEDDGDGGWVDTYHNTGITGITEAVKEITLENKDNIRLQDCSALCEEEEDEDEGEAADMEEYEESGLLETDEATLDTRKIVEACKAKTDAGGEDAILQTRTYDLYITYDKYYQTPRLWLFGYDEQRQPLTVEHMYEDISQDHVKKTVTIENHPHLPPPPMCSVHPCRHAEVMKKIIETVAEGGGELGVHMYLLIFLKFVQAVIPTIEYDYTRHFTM
Sequence of UniProt Q676U5 (Q676U5 whole entry): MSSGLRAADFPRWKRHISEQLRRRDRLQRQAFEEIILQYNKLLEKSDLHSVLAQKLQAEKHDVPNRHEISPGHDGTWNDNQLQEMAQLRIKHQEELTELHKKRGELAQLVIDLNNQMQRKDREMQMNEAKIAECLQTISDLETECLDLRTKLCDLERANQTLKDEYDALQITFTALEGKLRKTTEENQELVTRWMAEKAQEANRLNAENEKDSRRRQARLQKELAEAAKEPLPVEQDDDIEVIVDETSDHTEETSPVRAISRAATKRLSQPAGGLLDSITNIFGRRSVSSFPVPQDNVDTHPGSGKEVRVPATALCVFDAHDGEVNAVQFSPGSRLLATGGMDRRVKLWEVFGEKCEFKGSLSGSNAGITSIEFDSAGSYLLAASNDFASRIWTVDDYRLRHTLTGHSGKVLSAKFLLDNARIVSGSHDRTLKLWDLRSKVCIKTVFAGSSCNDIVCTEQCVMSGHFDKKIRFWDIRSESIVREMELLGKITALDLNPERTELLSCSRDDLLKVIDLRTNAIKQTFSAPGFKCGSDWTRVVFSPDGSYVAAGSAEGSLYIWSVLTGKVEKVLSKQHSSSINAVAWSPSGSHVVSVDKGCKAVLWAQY
Sequence of UniProt Q9NVI7 (Q9NVI7 whole entry): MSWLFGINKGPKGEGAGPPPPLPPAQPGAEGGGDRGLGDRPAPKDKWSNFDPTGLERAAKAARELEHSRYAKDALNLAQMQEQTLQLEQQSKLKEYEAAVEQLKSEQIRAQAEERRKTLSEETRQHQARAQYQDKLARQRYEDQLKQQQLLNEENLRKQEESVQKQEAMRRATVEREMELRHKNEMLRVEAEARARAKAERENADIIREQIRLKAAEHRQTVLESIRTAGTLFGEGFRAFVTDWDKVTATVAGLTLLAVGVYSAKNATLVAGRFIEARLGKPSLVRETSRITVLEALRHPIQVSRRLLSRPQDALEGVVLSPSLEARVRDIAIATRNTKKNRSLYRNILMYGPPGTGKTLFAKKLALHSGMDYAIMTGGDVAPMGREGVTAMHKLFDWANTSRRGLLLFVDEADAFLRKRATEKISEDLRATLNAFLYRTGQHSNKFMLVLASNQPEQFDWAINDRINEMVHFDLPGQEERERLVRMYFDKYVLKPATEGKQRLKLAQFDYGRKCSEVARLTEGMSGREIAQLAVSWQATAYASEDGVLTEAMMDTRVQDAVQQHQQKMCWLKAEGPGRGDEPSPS
Sequence of UniProt Q6VMQ6 (Q6VMQ6 whole entry): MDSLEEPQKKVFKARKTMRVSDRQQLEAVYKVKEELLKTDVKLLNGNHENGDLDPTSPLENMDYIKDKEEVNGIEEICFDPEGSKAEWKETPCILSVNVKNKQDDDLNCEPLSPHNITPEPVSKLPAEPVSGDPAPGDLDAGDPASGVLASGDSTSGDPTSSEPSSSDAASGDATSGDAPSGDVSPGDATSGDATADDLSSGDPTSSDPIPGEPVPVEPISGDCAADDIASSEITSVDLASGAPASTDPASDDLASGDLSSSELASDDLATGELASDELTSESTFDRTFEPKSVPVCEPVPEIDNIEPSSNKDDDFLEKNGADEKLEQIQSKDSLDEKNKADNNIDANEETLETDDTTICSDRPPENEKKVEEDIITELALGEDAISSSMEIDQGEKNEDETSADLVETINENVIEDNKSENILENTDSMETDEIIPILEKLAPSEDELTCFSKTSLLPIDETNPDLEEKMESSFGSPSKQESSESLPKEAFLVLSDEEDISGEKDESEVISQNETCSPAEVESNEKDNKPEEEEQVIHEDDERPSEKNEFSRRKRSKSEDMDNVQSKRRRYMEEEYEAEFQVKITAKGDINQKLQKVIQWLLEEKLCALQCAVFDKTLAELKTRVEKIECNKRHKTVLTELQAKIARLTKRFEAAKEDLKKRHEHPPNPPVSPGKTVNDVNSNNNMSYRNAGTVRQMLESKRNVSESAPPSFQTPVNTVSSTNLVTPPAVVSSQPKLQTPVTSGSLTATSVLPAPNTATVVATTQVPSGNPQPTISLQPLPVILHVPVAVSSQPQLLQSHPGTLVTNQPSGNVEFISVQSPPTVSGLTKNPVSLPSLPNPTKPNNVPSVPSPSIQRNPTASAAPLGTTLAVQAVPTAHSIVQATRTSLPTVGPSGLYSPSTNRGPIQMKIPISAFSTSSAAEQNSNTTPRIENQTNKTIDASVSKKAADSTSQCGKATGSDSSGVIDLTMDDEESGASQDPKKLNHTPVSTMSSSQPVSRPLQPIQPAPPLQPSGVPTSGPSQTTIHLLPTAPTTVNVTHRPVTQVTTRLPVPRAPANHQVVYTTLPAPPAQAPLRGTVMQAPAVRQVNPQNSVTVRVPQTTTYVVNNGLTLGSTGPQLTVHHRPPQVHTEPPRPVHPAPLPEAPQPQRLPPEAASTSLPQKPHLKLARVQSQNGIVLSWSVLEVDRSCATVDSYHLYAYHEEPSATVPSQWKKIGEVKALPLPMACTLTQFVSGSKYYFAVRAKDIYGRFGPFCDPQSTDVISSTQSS
Sequence of UniProt P32121 (P32121 whole entry): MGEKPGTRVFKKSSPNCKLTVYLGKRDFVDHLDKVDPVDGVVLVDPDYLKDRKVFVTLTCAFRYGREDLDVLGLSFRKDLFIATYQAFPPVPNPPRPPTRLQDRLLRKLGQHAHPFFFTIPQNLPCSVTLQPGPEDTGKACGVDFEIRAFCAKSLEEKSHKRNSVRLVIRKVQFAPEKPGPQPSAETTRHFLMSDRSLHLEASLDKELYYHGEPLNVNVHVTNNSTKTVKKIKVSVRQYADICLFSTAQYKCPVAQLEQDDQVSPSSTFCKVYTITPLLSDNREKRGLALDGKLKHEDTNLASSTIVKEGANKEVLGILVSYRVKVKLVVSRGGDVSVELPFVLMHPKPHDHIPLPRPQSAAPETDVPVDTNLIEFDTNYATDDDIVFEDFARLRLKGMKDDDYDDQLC
Sequence of UniProt P54709 (P54709 whole entry): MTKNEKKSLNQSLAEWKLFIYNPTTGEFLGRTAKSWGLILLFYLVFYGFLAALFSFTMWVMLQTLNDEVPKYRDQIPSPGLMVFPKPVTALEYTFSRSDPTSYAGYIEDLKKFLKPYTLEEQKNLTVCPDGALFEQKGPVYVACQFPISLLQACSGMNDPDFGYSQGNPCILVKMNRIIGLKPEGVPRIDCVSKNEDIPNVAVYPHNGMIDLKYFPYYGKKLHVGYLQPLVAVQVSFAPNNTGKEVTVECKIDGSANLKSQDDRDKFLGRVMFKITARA
Sequence of UniProt Q5T9A4 (Q5T9A4 whole entry): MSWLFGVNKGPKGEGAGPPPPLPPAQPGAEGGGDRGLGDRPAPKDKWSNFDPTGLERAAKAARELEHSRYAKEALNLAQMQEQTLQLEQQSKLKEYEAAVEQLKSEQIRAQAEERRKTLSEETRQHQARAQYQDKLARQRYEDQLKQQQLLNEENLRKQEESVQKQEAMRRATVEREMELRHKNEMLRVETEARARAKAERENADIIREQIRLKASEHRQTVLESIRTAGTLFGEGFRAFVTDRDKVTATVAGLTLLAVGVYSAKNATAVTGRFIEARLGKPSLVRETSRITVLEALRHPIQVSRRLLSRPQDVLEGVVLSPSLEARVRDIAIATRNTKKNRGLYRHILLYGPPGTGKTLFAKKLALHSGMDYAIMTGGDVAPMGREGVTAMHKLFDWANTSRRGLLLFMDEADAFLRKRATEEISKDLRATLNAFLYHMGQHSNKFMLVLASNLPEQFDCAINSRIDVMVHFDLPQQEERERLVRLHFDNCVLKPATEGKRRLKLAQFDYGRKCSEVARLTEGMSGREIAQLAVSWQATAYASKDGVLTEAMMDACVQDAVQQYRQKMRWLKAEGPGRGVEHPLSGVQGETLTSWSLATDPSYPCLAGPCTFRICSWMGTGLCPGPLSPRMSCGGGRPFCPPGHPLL
Sequence of UniProt Q9Y294 (Q9Y294 whole entry): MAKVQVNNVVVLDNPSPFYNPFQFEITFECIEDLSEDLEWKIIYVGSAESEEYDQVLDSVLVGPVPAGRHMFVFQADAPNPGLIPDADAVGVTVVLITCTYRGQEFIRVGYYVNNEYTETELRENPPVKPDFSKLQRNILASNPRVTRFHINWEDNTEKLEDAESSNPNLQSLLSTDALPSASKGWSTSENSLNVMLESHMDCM
Sequence of UniProt O95352 (O95352 whole entry): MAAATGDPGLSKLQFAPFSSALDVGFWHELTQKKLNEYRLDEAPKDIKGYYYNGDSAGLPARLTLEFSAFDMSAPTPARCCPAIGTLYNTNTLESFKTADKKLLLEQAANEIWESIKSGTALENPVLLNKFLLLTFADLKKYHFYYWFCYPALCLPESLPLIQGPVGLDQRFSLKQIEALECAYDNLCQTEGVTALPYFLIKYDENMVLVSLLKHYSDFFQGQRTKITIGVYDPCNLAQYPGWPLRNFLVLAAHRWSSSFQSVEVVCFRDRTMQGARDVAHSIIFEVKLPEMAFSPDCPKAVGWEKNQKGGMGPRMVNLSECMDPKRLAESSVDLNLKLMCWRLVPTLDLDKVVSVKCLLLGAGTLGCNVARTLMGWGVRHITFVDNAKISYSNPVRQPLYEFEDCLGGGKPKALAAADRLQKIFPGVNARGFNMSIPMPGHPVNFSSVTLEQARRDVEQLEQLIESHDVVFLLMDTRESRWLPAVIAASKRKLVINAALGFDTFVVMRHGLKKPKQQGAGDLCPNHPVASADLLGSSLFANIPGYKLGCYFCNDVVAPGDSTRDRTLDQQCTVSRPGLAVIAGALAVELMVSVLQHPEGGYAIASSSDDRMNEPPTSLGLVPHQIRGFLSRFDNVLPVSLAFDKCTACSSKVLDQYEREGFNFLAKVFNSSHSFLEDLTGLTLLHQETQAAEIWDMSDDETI

Target	thermal stability z-score (potassium arsenate)	thermal stability z-score (lipoamide; [1])	thermal stability z-score (lipoamide; arsenate co-treatment: none)
ARPC1B (UniProt O15143)	-0.0161	-0.0473	-0.175
ARPC2 (UniProt O15144)	-1.15	-0.317	-0.205
ARPC3 (UniProt O15145)	-0.254	0.0284	0.0195
ARPC4 (UniProt P59998)	0.369	1.12	0.913
ARPC5 (UniProt O15511)	-0.246	0.9	0.484
ARPC5L (UniProt Q9BPX5)	-0.302	0.0991	-0.00985
ARPP19 (UniProt P56211)	-0.359	0.84	0.316
ARRB1 (UniProt P49407)	0.262	0.197	0.543
ARRB2 (UniProt P32121)	0.28	-0.153	-1.1
ARRDC1 (UniProt Q8N5I2)	0.121	-0.245	0.802
ARSA (UniProt P15289)	-0.0376	0.254	0.195
ARV1 (UniProt Q9H2C2)	-0.894	0.292	0.473
ASAH1 (UniProt Q13510)	0.065	-0.162	-0.738
ASAP1 (UniProt Q9ULH1)	-0.0654	0.0666	-0.0222
ASAP2 (UniProt O43150)	-0.394	-0.641	-0.527
ASB6 (UniProt Q9NWX5)	0.506	0.441	-0.288
ASB9 (UniProt Q96DX5)	-0.202	0.263	0.826
ASCC1 (UniProt Q8N9N2)	-0.708	-1.01	-0.215
ASCC2 (UniProt Q9H1I8)	1.51	-0.0905	0.388
ASCC3 (UniProt Q8N3C0)	-0.277	-0.289	-0.167
ASF1A (UniProt Q9Y294)	-0.103	-0.132	-0.202
ASF1B (UniProt Q9NVP2)	-0.169	-0.0916	-0.0291
ASH2L (UniProt Q9UBL3)	-1.84	0.566	-0.319
ASL (UniProt P04424)	-0.112	0.153	-0.627

Target	thermal stability z-score (potassium arsenate)	thermal stability z-score (lipoamide; [1])	thermal stability z-score (lipoamide; arsenate co-treatment: none)
ASMTL (UniProt O95671)	-0.959	1.09	1.31
ASNA1 (UniProt O43681)	-0.178	-0.234	-0.285
ASNS (UniProt P08243)	-0.303	1.69	0.131
ASNSD1 (UniProt Q9NWL6)	-0.734	-0.942	-0.0608
ASPH (UniProt Q12797)	0.014	-2.27	-2.04
ASPHD1 (UniProt Q5U4P2)	-0.276	-0.334	0.214
ASPSCR1 (UniProt Q9BZE9)	-0.304	0.207	-0.218
ASS1 (UniProt P00966)	-1.34	-0.416	0.107
ASUN (UniProt Q9NVM9)	0.906	0.368	0.404
ATAD1 (UniProt Q8NBU5)	0.641	0.216	0.454
ATAD3A (UniProt Q9NVI7)	0.401	-0.137	0.337
ATAD3B (UniProt Q5T9A4)	0.607	-0.338	-0.0604
ATE1 (UniProt O95260)	-2.08	0.315	-0.209
ATF1 (UniProt P18846)	-0.0555	1.13	1.84
ATF6 (UniProt P18850)	-0.177	-0.0284	-0.0127
ATF7IP (UniProt Q6VMQ6)	-0.304	0.974	0.0822
ATG2B (UniProt Q96BY7)	-0.0277	-0.149	0.0605
ATG3 (UniProt Q9NT62)	-0.627	0.381	0.021
ATG4A (UniProt Q8WYN0)	-0.744	0.167	0.0706
ATG4B (UniProt Q9Y4P1)	-0.73	0.0217	-0.419
ATG4C (UniProt Q96DT6)	0.0488	0.0282	0.0873
ATG5 (UniProt Q9H1Y0)	-0.959	-0.255	-0.342
ATG7 (UniProt O95352)	0.16	-0.324	0.291
ATG9A (UniProt Q7Z3C6)	0.359	-0.389	-0.339

Target	thermal stability z-score (potassium arsenate)	thermal stability z-score (lipoamide; [1])	thermal stability z-score (lipoamide; arsenate co-treatment: none)
ATG13 (UniProt O75143)	0.699	-0.00854	0.21
ATG16L1 (UniProt Q676U5)	-0.533	0.346	0.282
ATG101 (UniProt Q9BSB4)	0.678	-0.67	-1.42
ATIC (UniProt P31939)	-1.07	0.0982	-0.0656
ATL2 (UniProt Q8NHH9)	0.103	-0.223	-0.0585
ATL3 (UniProt Q6DD88)	0.731	-0.399	-0.0961
ATM (UniProt Q13315)	0.00628	0.678	-0.445
ATN1 (UniProt P54259)	0.759	0.566	0.784
ATP1A1 (UniProt P05023)	-0.742	0.0243	0.186
ATP1B1 (UniProt P05026)	-0.201	0.104	-0.207
ATP1B3 (UniProt P54709)	-0.13	-0.0616	-0.138
ATP2A2 (UniProt P16615)	-0.0158	-1.16	-0.667
ATP2B1 (UniProt P20020)	-0.146	0.446	0.697
ATP2B2 (UniProt Q01814)	0.106	-0.146	-0.424
ATP2B4 (UniProt P23634)	-1.05	-0.147	-0.0358
ATP2C1 (UniProt P98194)	-1.37	-1.04	-0.728
ATP5A1 (UniProt P25705)	-0.382	-0.144	-0.0322
ATP5B (UniProt P06576)	0.0331	-0.424	-0.332
ATP5C1 (UniProt P36542)	-0.252	-0.36	-0.306
ATP5D (UniProt P30049)	0.463	1.09	0.762
ATP5E (UniProt P56381)	0.00933	0.582	0.508
ATP5F1 (UniProt P24539)	0.226	-0.648	-0.133
ATP5H (UniProt O75947)	0.504	0.72	0.597
